# Measurements reported in patent US8937050B2, “Methods and compositions for treatment of autism” (The Johns Hopkins University, priority 2011, dated 2015).
# Entries after “also recorded” stand apart in the source; their conditions may differ.
# Columns and labels:
# XALD fibroblasts = test: Fatty acid β-oxidation of 1-14C-labeled fatty acids; assay type: cell-based, human; conditions: XALD fibroblasts, five days; FIG. 1B
# Procedure: Fatty acid β-oxidation activity in XALD fibroblasts was determined by measuring their capacity to degrade 1-^14C-labeled fatty acids to water-soluble products as described in McGuiness et al., 2003.
# 4PBA-induced peroxisomal VLCFA β-oxidation (degradation) is dependent on mitochondrial long chain fatty acid (LCFA) β-oxidation (McGuinness et al., 2003). […] Antimycin A (AA) is a cytochrome c reductase inhibitor that inhibits the mitochondrial electron transport chain, mitochondrial biogenesis, and thus, cellular respiration (Ranganathan et al., 2009). […] XALD fibroblasts were treated with 4PBA in the presence or absence of antimycin A (AA), a cytochrome c reductase inhibitor, for five days and β-oxidation levels of LCFA (C16:0) and VLCFA (C24:0) levels were measured.
# HbF = conditions: Keefer et al., 2006; cited from earlier work
# [1] = tested on: sickle cell disease (SCD); conditions: cited from earlier work
# K562 cells = test: HbF-producing cell production (DAF staining); assay type: cell-based, human; conditions: K562 cells, 1.2 mM SB or 100 μM HU; FIG. 1D
# Procedure: Fibroblasts (70-95% confluent) were treated with 5 mM 4PBA (1 mM for JNK inhibition studies), 600 μM HU, 200 nM TSA, or 5 μM SFN unless otherwise specified.
# K562 cells were suspended in 1.1 mL media and 240 μL of DAF [working solution 50 μL 2,7diaminofluorene (DAF) stock (50 μg DAF in 5 mL 90% glacial acetic acid), 50 μL 30% hydrogen peroxide, and 2.5 ml 200 mM Tris-HCl, pH 7.0]. DAF stained hemoglobinized cells were scored using a hemocytometer.
# K562 cells were treated with SB and HU for four to ten days. […] (n≧3 unless otherwise noted).
# To determine whether the induction of mitochondrial biogenesis by SB or HU treatment was necessary for the induction of HbF-producing cell production, K562 cells were treated with SB or HU in the presence or absence of AA. […] After two to four days of drug treatment with or without AA, mitochondrial mass was measured using Mitotracker, a mitochondrial stain. Fold change (drug treated/control) is shown. […] After four days of drug treatment with or without AA, cells were stained with DAF. The relative number of cells producing HbF (DAF stained cells) were plotted. […] After eight to ten days of drug treatment, peroxisome proliferation was measured using an antibody against the peroxisomal membrane protein, PEX14 and a FITC-labeled secondary antibody. Fold change (drug treated/control) is shown. In FIGS. 1C, 1D, and 1E, the * represents a statistically significant increase in a measurement between drug treated and control samples or a statistically significant decrease in a measurement between drug treated and drug treated samples in the presence of AA (p≦0.05) (Bars=SEM). This finding indicates dependence of the beneficial effect (i.e., elevated HbF levels) on induced mitochondrial biogenesis. Thus, the therapeutic effects observed in SCD may involve the pharmacological induction of mitochondrial biogenesis by SB or HU.
# K562 cells were treated for four days with HU in the presence or absence of SP600125 or PBS as a control (CON). […]
# FL-SMN mRNA = test: RT-PCR of FL-SMN and total SMN mRNA in spinal muscular atrophy fibroblasts; assay type: cell-based, human
# Procedure: Following the manufacturer's protocols, DNase I-treated cDNA was synthesized using Superscript III or Thermoscript reverse transcriptase (Invitrogen). PCR reactions were performed in duplicate on the Roche Lightcycler 3.5 (Basel, Switzerland) or the Bio-Rad iCycler (Hercules, Calif.) using Quantitech SYBR green PCR mix (Qiagen, Valencia, Calif.). GeNorm software calculated a normalization factor for each sample using the relative amounts of at least two of the following reference genes, β2-microglobulin, […], actin, and/or eukaryotic elongation factor 1A (Vandesompele et al., 2002). Primers for the various experiments described herein are listed below.
# Type I and type III spinal muscular atrophy (SMA I or SMA III) fibroblasts were treated with SFN for the indicated times. The relative fold increase in the ratio of FL-SMN/total SMN transcripts compared with the untreated cell line (normalized to 1) is plotted. Cell lines from left to right are GM09677, GM00232 and 2906. N≧2 independent experiments.
# Spinal muscular atrophy fibroblasts were treated with 1.5 mM SFN alone for 51 hr. (SMA I, GM09677) or treated with 0.5 mM SFN for 8 hr. (SMA III, 2906) with or without […] SP600125 (JNK inhibitor), 2.5 mM 3-methyladenine (autophagy inhibitor, APG), […] antimycin A (mitochondrial inhibitor, MITO) or […] sirtinol (SIRT1 inhibitor). The fold increases in FL-SMN expression compared with either GAPDH or total SMN expression and the fold increase in total SMN expression compared with GAPDH expression after SFN treatment is plotted. Untreated values were normalized to 1 and are indicated by the horizontal line. (n=1 per cell line, performed in duplicate)
# To determine which stress pathways are necessary for the increase in FL-SMN production, spinal muscular atrophy fibroblasts were co-treated with SFN and either SP600125, an inhibitor of the JNK pathway (Bennett et al., 2001), 3-methyladenine, an inhibitor of the autophagy pathway (Seglen et al., 1982), antimycin A, a mitochondrial inhibitor (Ranganathan et al., 2009), or sirtinol, an inhibitor of SIRT1 activity (Grozinger et al., 2001). […] SIRT1, an NAD+-dependent deacetylase, is known to regulate cellular stress responses, cellular metabolism and cellular survival (Salminen et al., 2009). Specifically, SIRT1 inhibition reduces the induction of HSR genes (Westerheide et al., 2009); SIRT1 activity enhances SOD2 expression (Anastasiou et al., 2006); SIRT1 negatively regulates the mammalian target of rapamycin triggering autophagy (Haigis et al., 2010); and SIRT1 activates mitochondrial biogenesis via the stress-responsive transcription factor PGC1a (Yu et al., 2009). The yeast ortholog Sir2 is necessary for the induction of mitochondrial biogenesis by 4PBA or HU in Saccharomyces cerevisiae (Cha 2010). […] However, SIRT1 can be activated by various post-translational changes. Therefore, the potential involvement of SIRT1 in the therapeutic effects of these drugs by inhibition studies was evaluated.
# HSF1 = conditions: luciferase reporter system; cited from earlier work
# Alzheimer's disease = conditions: Park et al., 2009, Ricobaraza et al.; cited from earlier work
molecule,measurement,setting,value
4-phenylbutyrate [4PBA],LCFA (C16:0) β-oxidation,XALD fibroblasts,induced
same,VLCFA (C24:0) β-oxidation,XALD fibroblasts,induced
"NC(=O)NO [HU, hydroxyurea]",HbF levels,HbF,increased
same,cognitive function in children with SCD,"[1]; Puffer et al., 2007",improve cognitive function
same,incidence of strokes,[1]; SCD,decreases
same,number of HbF-producing cells,K562 cells,significantly increased
"C[S@@+]([O-])CCCCN=C=S [SFN, 1-isothiocyanato-4R-(methylsulfinyl)butane]",relative expression of FL-SMN transcripts normalized to GAPDH or total SMN transcript levels,FL-SMN mRNA; FIG. 8B,increased
same,total SMN transcript levels normalized to GAPDH transcript levels,FL-SMN mRNA; FIG. 8B,remained unchanged
same,FL-SMN mRNA expression compared with total SMN transcription,"FL-SMN mRNA; SMA type I lines GM09677, GM00232 and SMA type III line 96-2906, FIG. 8A",significantly increased
same,HSF1 mediated transcription of the reporter,HSF1,activated
same,Therapeutic Effect,Alzheimer's disease,reduce β-amyloid toxicity; also recorded: prevent neuronal cell death
